Experimental data reported in patent US11952433B2, “Heterochiral peptide-complex and composition for measuring nuclear magnetic resonance spectroscopy residual dipolar coupling containing self-assembled intermediates of heterochiral peptide-complex” (INDUSTRY-ACADEMIC COOPERATION FOUNDATION, YONSEI UNIVERSITY, priority 2020, dated 2024).

What was measured:
[1] = Time course of self-assembly in solution by CD and AFM; assay type: physicochemical; conditions: in water; for self-assembly kinetics (in words): CD and AFM with time
Description: The CD spectra of the peptide complexes in aqueous solution were acquired using a Chirascan™ CD spectrometer. All the peptide complexes were adjusted to 20 μM with DI water and then incubated at room temperature for 2 hours. The CD spectra were recorded using a 2-mm path-length cuvette from 250 nm to 190 nm at 25° C. Each spectrum was collected by averaging three scans and corrected for the distilled water background spectrum.
The peptide complex samples were diluted to 20 μM and 10 μL was dropped onto a freshly cleaved mica plate. After 1 minute of incubation, the mica plate was washed with 100 μL of doubly distilled water and then the residual solution was gently removed using filter paper. After completely drying at room temperature, AFM measurement was made. The AFM scans were conducted at noncontact mode (NCM) with a Park NX10 instrument (Park Systems, Korea). The scanning was performed at a scan rate of 0.3 Hz and a Z-gain of 1.
All the peptide samples were diluted to 1 mM and divided into 1-mL aliquots. The aliquots were heated at 95° C. for 1 hour and slowly annealed in a water bath overnight. After the annealing process, the samples were incubated at room temperature and the self-assembly process with time was analyzed by CD, AFM, WAXS, NMR, etc.

[2] = Wide-angle X-ray scattering (WAXS) of the colloidal crystal solution; assay type: physicochemical; conditions: for WAXS d-spacing, intersheet distance / WAXS reflection d (second reflection) / WAXS reflection d, interstrand distance of β-sheets: 3.0 mg/mL, room temperature
Description: Wide-angle X-ray scattering analysis was performed using the 4C SAXS II beamline (BL) of the Pohang Accelerator Laboratory (PAL, Korea). In-vacuum undulator 20 of the Pohang Light Source II storage ring was used as a beam source, and a vertical toroidal focusing mirror was used to deliver an X-ray beam of 0.675 Å. 100 μL of the sample solution was mounted in a quartz microcapillary with a thickness of 10 μm and a length of 80 mm. The sample was irradiated for 5 seconds of exposure time at room temperature. The concentrations of the samples of Comparative Examples 1-2 and Example 1 (T-W6, T-w6 and T-(wW)3) were all 3.0 mg/mL. The X-ray scattering patterns were collected by using a charge-coupled detector (Mar USA, Inc.) positioned 20 cm apart from the sample (0.25 Å^−1<q<2.00 Å^−1).
The data were captured in six continuous frames of 0.1 minute each to minimize the damage from irradiation. Each 2D scattering pattern was averaged circularly from the beam focus and normalized to the intensity of the transmitted X-ray beam. The transmitted beam intensity was monitored with a scintillation counter. The scattering pattern of water was used as the experimental background.
However, the detailed molecular arrangement of the peptide in each crystal might be different. To address this question, wide-angle X-ray scattering (WAXS) analysis of the colloidal crystal solution was performed.

WAXS d-spacing, intersheet distance [2] | WAXS reflection d (second reflection) [2] | WAXS reflection d, interstrand distance of β-sheets [2] | Substance | self-assembly kinetics (in words) [1] | time after which the increase in CD signals had almost ceased (self-assembly equilibrium) ([1]; room temperature after annealing) | distance between the β strands [2]
17.5 Å | 5.8 Å | 4.7 Å | PEGylated (D)Trp-(D)Trp-(D)Trp-(D)Trp-(D)Trp-(D)Trp [Comparative Example 2] | – | – | –
– | – | – | PEGylated (L)Trp-(D)Trp-(L)Trp-(D)Trp-(L)Trp-(D)Trp [Example 2] | same slow assembly kinetics | – | –
17.5 Å | 5.8 Å | 4.7 Å | PEGylated (L)Trp-(L)Trp-(L)Trp-(L)Trp-(L)Trp-(L)Trp [Comparative Example 1] | – | – | –

Substance | WAXS d-spacing, intersheet distance [2] | WAXS reflection d (second reflection) [2] | WAXS reflection d, interstrand distance of β-sheets [2] | self-assembly kinetics (in words) [1] | time after which the increase in CD signals had almost ceased (self-assembly equilibrium) ([1]; room temperature after annealing) | distance between the β strands [2]
(D)Trp-(L)Trp-(D)Trp-(L)Tre-(D)Trp-(L)Trp [Example 1] | 17.0 Å | 5.6 Å | 4.7 Å | markedly slower self-assembly kinetics | 2 weeks | 4.56-4.92 Å
